This experiment addresses T1, rat metabotropic glutamate receptor 5 (mGluR5) (Rattus norvegicus, UniProt P31424).
T1 construct: expressed in transfected cells; host or cells: HEK 293
Put plainly: Calcium mobilization assay (FLIPR) for negative or positive allosteric activity, HEK 293 cells. Conditions: HEK293, negative allosteric modulation, inhibition of EC80 glutamate response; read-out: FLIPR maximum inhibition. It is filed as cell-based. How it is done:
The cDNA for rat metabotropic glutamate receptor 5 (mGluR5) was a generous gift from S. Nakanishi (Kyoto University, Kyoto, Japan). The mGluR5 was stably expressed in a HEK 293 cell line and grown in Dulbecco's Modified Eagle Medium (DMEM) (Invitrogen, Carlsbad, Calif.) with supplements (10% bovine calf serum, 4 mM glutamine, 100 units/mL penicillin, 100 μg/mL streptomycin and 0.75 mM G1418) at 37° C., 5% CO2. Twenty-four hours prior to assay, cells were seeded into 384-well black wall microtiter plates coated with poly-D-lysine. Just prior to assay, media was aspirated and cells dye-loaded (25 μL/well) with 3 μM Fluo-4/0.01% pluronic acid in assay buffer (Hank's Balanced Saline Solution (HBSS)): 150 mM NaCl, 5 mM KCl, 1 mM CaCl2, 1 mM MgCl2, plus 20 mM N-2-Hydroxyethylpiperazine-N′-2-ethanesulfonic acid (HEPES), pH 7.4, 0.1% bovine serum albumin (BSA) and 2.5 mM probenicid) for 1 hour in 5% CO2 at 37° C. After excess dye was discarded, cells were washed in assay buffer and layered with a final volume equal to 30 μL/well. Basal fluorescence is monitored in a fluorometric imaging plate reader (FLIPR) (Molecular Devices, Sunnyvale, Calif.) with an excitation wavelength of 488 nm and an emission range of 500 to 560 nm. Laser excitation energy was adjusted so that basal fluorescence readings were approximately 10,000 relative fluorescent units. Cells were stimulated with an EC20 or an EC80 concentration of glutamate in the presence of a compound to be tested, both diluted in assay buffer, and relative fluorescent units were measured at defined intervals (exposure=0.6 sec) over a 3 min period at room temperature. Basal readings derived from negative controls were subtracted from all samples. Maximum change in fluorescence was calculated for each well. Concentration-response curves derived from the maximum change in fluorescence were analyzed by nonlinear regression (Hill equation). A negative modulator can be identified from these concentration-response curves if a compound produces a concentration dependent inhibition of the EC80 glutamate response. […] Examples 11-163 also were tested in the above assay.
A positive modulator can be identified from these concentration-response curves if a compound produces a concentration dependent increase in the EC20 glutamate response.

T1 sequence (P31424 21-1171 isoform P31424-2 limits assumed): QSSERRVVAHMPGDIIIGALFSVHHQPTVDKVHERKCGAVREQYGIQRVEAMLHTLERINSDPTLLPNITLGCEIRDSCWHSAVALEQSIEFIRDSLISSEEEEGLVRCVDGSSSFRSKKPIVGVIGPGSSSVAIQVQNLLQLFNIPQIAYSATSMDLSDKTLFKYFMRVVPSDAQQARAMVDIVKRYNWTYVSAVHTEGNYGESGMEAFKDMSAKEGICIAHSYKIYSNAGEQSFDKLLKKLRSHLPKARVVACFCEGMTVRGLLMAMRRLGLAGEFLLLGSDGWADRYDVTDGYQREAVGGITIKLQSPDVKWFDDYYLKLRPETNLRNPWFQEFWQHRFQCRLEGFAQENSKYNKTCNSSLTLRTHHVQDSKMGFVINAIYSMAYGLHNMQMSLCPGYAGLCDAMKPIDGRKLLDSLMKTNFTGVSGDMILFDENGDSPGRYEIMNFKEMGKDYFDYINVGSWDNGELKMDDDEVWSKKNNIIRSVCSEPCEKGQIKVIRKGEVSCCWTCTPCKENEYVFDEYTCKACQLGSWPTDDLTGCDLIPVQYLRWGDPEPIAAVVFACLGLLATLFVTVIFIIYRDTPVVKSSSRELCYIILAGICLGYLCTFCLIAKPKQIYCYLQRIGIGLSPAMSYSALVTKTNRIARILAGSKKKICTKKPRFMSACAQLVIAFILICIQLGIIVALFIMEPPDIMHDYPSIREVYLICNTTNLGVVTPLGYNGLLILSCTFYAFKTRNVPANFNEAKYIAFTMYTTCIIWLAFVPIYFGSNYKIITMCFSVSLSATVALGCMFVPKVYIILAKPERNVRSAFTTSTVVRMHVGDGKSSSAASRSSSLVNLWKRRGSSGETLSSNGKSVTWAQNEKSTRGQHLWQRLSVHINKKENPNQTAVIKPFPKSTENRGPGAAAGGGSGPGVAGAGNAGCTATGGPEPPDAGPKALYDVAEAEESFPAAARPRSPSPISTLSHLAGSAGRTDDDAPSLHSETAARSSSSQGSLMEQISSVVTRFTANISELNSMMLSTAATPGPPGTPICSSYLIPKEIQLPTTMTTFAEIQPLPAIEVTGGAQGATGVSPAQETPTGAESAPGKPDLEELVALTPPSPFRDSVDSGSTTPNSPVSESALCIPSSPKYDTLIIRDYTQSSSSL

`CN(C)CCN(C)c1cccc(C(=O)NC23CC4CC(CC(NC(=O)c5ccccn5)(C4)C2)C3)n1` [Example 227, 6-[(2-Dimethylamino-ethyl)-methyl-amino]-pyridine-2-carboxylic acid {3-[(pyridine-2-carbonyl)-amino]-adamantan-1-yl}-amide]: the Emax lay within 63 to 99%.

For the molecule `COc1cccc(C(=O)NC23CC4CC(C2)CC(NC(=O)c2ccccn2)(C4)C3)c1` [Example 80, Pyridine-2-carboxylic acid [3-(3-methoxy-benzoylamino)-adamantan-1-yl]-amide], the Emax was in the range of 63 to 99%.

As to `Cc1cccc(C(=O)NC23CC4CC(C2)CC(NC(=O)c2cccc(NCCC(N)=O)n2)(C4)C3)n1` [Example 240, 6-(2-Carbamoyl-ethylamino)-pyridine-2-carboxylic acid (3-[(6-methyl-pyridine-2-carbonyl)-amino]-adamantan-1-yl}-amide], the Emax lay within 63 to 99%.

As to `Cc1ccn2cc(C(=O)NC34CC5CC(CC(NC(=O)c6ccccn6)(C5)C3)C4)nc2c1` [Example 91, 7-Methyl-imidazo[1,2-a]pyridine-2-carboxylic acid {3-[(pyridine-2-carbonyl)-amino]-adamantan-1-yl}-amide], the Emax lay within 63 to 99%.

`Cc1cccc(C(=O)NC23CC4CC(C2)CC(NC(=O)c2cccc(N(C)CCCN(C)C)n2)(C4)C3)n1` [Example 233, 6-[(3-Dimethylamino-propyl)-methyl-amino]-pyridine-2-carboxylic acid {3-[(6-methyl-pyridine-2-carbonyl)-amino]-adamantan-1-yl}-amide]: the Emax was 63 to 99%.

Take `Cc1cccc(C(=O)NC23CC4CC(CC(NC(=O)c5cccc(CCl)c5)(C4)C2)C3)n1` [Example 45, 6-Methyl-pyridine-2-carboxylic acid [3-(3-chloromethyl-benzoylamino)-adamantan-1-yl]-amide]: the Emax lay within 63 to 99%.

`Cc1cccc(C(=O)NC23CC4CC(CC(NC(=O)c5ccc6nccn6c5)(C4)C2)C3)n1` [Example 53, Imidazo[1,2-a]pyridine-6-carboxylic acid {3-[(6-methyl-pyridine-2-carbonyl)-amino]-adamantan-1-yl}-amide]: the Emax is 63 to 99%.

Take `Cc1cccc(C(=O)NC23CC4CC(CC(NC(=O)c5cccnn5)(C4)C2)C3)n1` [Example 24, Pyridazine-3-carboxylic acid {3-[(6-methyl-pyridine-2-carbonyl)-amino]-adamantan-1-yl}-amide]: the Emax fell in the range of 63 to 99%.

For `Cc1cccc(C(=O)NC23CC4CC(CC(NC(=O)c5cc(C6CC6)on5)(C4)C2)C3)n1` [Example 26, 6-Methyl-pyridine-2-carboxylic acid {3-[(5-cyclopropyl-isoxazole-3-carbonyl)-amino]-adamantan-1-yl}-amide], the Emax lay in the range of 63 to 99%.

With `Cc1cccc(C(=O)NC23CC4CC(C2)CC(NC(=O)c2cccc(N5CCC[C@H]5C(N)=O)n2)(C4)C3)n1` [Example 239, 6-((S)-2-Carbamoyl-pyrrolidin-1-yl)-pyridine-2-carboxylic acid {3-[(6-methyl-pyridine-2-carbonyl)-amino]-adamantan-1-yl}-amide], the Emax fell in the range of 63 to 99%.

`Cc1cncc(C(=O)NC23CC4CC(CC(NC(=O)c5ccnc(Br)c5)(C4)C2)C3)n1` [Example 178, 6-Methyl-pyrazine-2-carboxylic acid {3-[(2-bromo-pyridine-4-carbonyl)-amino]-adamantan-1-yl}-amide]: the Emax fell in the range of 63 to 99%.

Consider `Cc1cncc(C(=O)NC23CC4CC(C2)CC(NC(=O)c2cccc(F)n2)(C4)C3)n1` [Example 164, 6-Methyl-pyrazine-2-carboxylic acid {3-[(6-fluoro-pyridine-2-carbonyl)-amino]-adamantan-1-yl}-amide], for which the Emax was 63 to 99%.

Consider `Cn1ccc(C(=O)NC23CC4CC(CC(NC(=O)c5ccccn5)(C4)C2)C3)n1` [Example 76, Pyridine-2-carboxylic acid {3-[(1-methyl-1H-pyrazole-3-carbonyl)-amino]-adamantan-1-yl}-amide], for which the Emax is 63 to 99%.

On to `O=C(NC12CC3CC(C1)CC(NC(=O)c1ccccn1)(C3)C2)c1ccc2nccn2c1` [Example 89, Imidazo[1,2-a]pyridine-6-carboxylic acid {3-[(pyridine-2-carbonyl)-amino]-adamantan-1-yl}-amide], for which the Emax lay within 63 to 99%.

Turning to `Cc1cccc2nc(C(=O)NC34CC5CC(CC(NC(=O)c6ccccn6)(C5)C3)C4)cn12` [Example 92, 5-Methyl-imidazo[1,2-a]pyridine-2-carboxylic acid {3-[(pyridine-2-carbonyl)-amino]-adamantan-1-yl}-amide], the Emax was 63 to 99%.

Take `COc1ccc(C(=O)NC23CC4CC(C2)CC(NC(=O)c2ccccn2)(C4)C3)cc1` [Example 81, Pyridine-2-carboxylic acid [3-(4-methoxy-benzoylamino)-adamantan-1-yl]-amide]: the Emax lay within 63 to 99%.

Turning to `O=C(NC12CC3CC(C1)CC(NC(=O)c1cccc(N4CCC(O)C4)n1)(C3)C2)c1ccccn1` (stereo not drawn) [Example 201, 6-(3-Hydroxy-pyrrolidin-1-yl)-pyridine-2-carboxylic acid {3-[(pyridine-2-carbonyl)-amino]-adamantan-1-yl}-amide], the Emax lay in the range of 63 to 99%.

Turning to `Cc1cccc(C(=O)NC23CC4CC(C2)CC(NC(=O)c2cccc(NCCCN(C)C)n2)(C4)C3)n1` [Example 236, 6-(3-Dimethylamino-propylamino)-pyridine-2-carboxylic acid {3-[(6-methyl-pyridine-2-carbonyl)-amino]-adamantan-1-yl}-amide], the Emax was 63 to 99%.

Consider `Cc1cccc(C(=O)NC23CC4CC(C2)CC(NC(=O)c2cccc(C(F)(F)F)n2)(C4)C3)n1` [Example 23, 6-Trifluoromethyl-pyridine-2-carboxylic acid {3-[(6-methyl-pyridine-2-carbonyl)-amino]-adamantan-1-yl}-amide], for which the Emax was in the range of 63 to 99%.

Take `COc1ccnc(C(=O)NC23CC4CC(C2)CC(NC(=O)c2cncc(C)n2)(C4)C3)c1` [Example 153, 6-Methyl-pyrazine-2-carboxylic acid {3-[(4-methoxy-pyridine-2-carbonyl)-amino]-adamantan-1-yl}-amide]: the Emax is 70 to 99%.

On to `Cc1cccc(C(=O)NC23CC4CC(C2)CC(NC(=O)c2cccc(NCCN(C)C)n2)(C4)C3)n1` [Example 232, 6-(2-Dimethylamino-ethylamino)-pyridine-2-carboxylic acid {3-[(6-methyl-pyridine-2-carbonyl)-amino]-adamantan-1-yl}-amide], for which the Emax fell in the range of 63 to 99%.

Regarding `O=C(NC12CC3CC(C1)CC(NC(=O)c1nccc(C(F)(F)F)n1)(C3)C2)c1cccc(F)c1` [Example 184, 4-Trifluoromethyl-pyrimidine-2-carboxylic acid [3-(3-fluoro-benzoylamino)-adamantan-1-yl]-amide], the Emax was 63 to 99%.

Regarding `COc1cccc(C(=O)NC23CC4CC(CC(NC(=O)c5ccccn5)(C4)C2)C3)n1` [Example 68, 6-Methoxy-pyridine-2-carboxylic acid {3-[(pyridine-2-carbonyl)-amino]-adamantan-1-yl}-amide], the Emax was in the range of 63 to 99%.

As for `NC(=O)[C@@H]1CCCN1c1cccc(C(=O)NC23CC4CC(CC(NC(=O)c5ccccn5)(C4)C2)C3)n1` [Example 230, 6-((S)-2-Carbamoyl-pyrrolidin-1-yl)-pyridine-2-carboxylic acid {3-[(pyridine-2-carbonyl)-amino]-adamantan-1-yl}-amide], the Emax lay in the range of 63 to 99%.
